Test results taken from patent US20080182859A1 (Curis, Inc., priority 2006, published 2008).
pEC50: −log10 of the molar value. Where a name gives a salt, the structure may show the parent alone.

What was measured:
[1] = tested on: sonic hedgehog pathway; test: Hedgehog pathway Gli-luciferase reporter assay, S12 cells; assay type: cell-based; settings: S12 mouse embryonic mesenchymal cells
Description: Mouse (TM3: mouse Leydig cells; S12: mouse embryonic mesenchymal cells) and human (Daoy: human medulloblastoma cell; HepM: human embryonic palatal mesenchymal cell) cell lines are used to screen small molecules for their ability to modulate the activity of the sonic hedgehog pathway (Table 1, Table 2, and Table 3). Stable hedgehog pathway reporter cell lines are established by specific antibiotic selection following transfection of a reporter plasmid containing a luciferase gene located directly downstream from the gli promoter. Consequently, any observable changes in cellular luciferase activity may be attributed to changes in sonic hedgehog pathway activity in mouse and human cells, respectively, since gli is the major by-product of this pathway. To calculate activity, we generate an eleven point dose curve for each compound using 1:3 dilutions in 96 well assay plates. Each plate tested also contains low and high control to establish maximal pathway activation so to establish/compare a percentage activation of each tested compound (AMAX) on respective plates. Also we calculate EC50 values, or a concentration where the pathway will be exactly 50% activated, for each tested compound to determine potency. In these cell lines, compounds that register >20% AMAX values are considered active.
Stable hedgehog pathway reporter cell lines are established following specific antibiotic selection following transfection of a reporter plasmid In short, typically cells are plated in MicroTiter-plates at 10,000-20,000 cells per well, in growth media (containing 10%-20% FBS). After 48-72 hrs (HGL and DGL respectively) the media in the assay plates is switched to low-serum containing media (0.5% FBS). At that time compounds are added (at 1-5 μM) to the assay plates, in the presence or absence of hedgehog protein (octyl-modified version; 1-5 ng/ml). After another 24 hrs of incubation, the media from the assay plates is discarded and replaced with luciferase assay-mix. Subsequently, plates are incubated at RT for ˜15-30 mins and then read in a luminometer. [note: addition of the Hedgehog protein, although not critical, will sensitize the assay allowing the identification of weak actives].

[2] = tested on: sonic hedgehog pathway; test: Human hedgehog reporter assay Daoy-GliLuc (DGL); assay type: cell-based; settings: Daoy human medulloblastoma cells, Gli-luciferase reporter
Summary of the method: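 Agonist mode: cells carrying a luciferase gene downstream of the gli promoter received compound at 1–5 μM in 0.5% FBS for 24 h, optionally sensitised with 1–5 ng/ml octyl-modified hedgehog protein; luminescence gave % activation and EC50.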

[3] = read-out: Human Daoy (Gli-Luc) Avg. EC50

Row | Structure (SMILES) | pEC50 [2, 3] | pEC50 ([2]; read-out: Daoy Avg. EC50) | pEC50 ([1]; read-out: Mouse S12 Avg. EC50) | pEC50 ([1]; read-out: S12 Avg. EC50)
1 | CN[C@H]1CC[C@@H](N(Cc2cc(-c3ccc([S+](C)[O-])cc3)ccc2OC)C(=O)c2sc3c(F)ccc(F)c3c2Cl)CC1 (some centres unmarked) [Compound 377, 3-Chloro-4,7-difluoro-benzo[b]thiophene-2-carboxylic acid (4′-methanesulfinyl-4-methoxy-biphenyl-3-ylmethyl)-(4-methylamino-cyclohexyl)-amide trifluoroacetate] | > 7.30 | – | > 7.30 | –
2 | CNC1CCC(N(Cc2cc(-c3cccnc3F)ccc2OC)C(=O)c2sc3c(F)ccc(F)c3c2Cl)CC1 (centres unmarked) [Compound 378, 3-Chloro-4,7-difluoro-benzo[b]thiophene-2-carboxylic acid [5-(2-fluoro-pyridin-3-yl)-2-methoxy-benzyl]-(4-methylamino-cyclohexyl)-amide] | > 7.30 | – | > 7.30 | –
3 | CNC1CCC(N(Cc2cc(-c3ccc(F)nc3)ccc2OC)C(=O)c2sc3c(F)ccc(F)c3c2Cl)CC1 (centres unmarked) [Compound 379, 3-Chloro-4,7-difluoro-benzo[b]thiophene-2-carboxylic acid [5-(6-fluoro-pyridin-3-yl)-2-methoxy-benzyl]-(4-methylamino-cyclohexyl)-amide] | > 7.30 | – | > 7.30 | –
4 | CNC1CCC(N(Cc2cc(-c3cncc(F)c3)ccc2OC)C(=O)c2sc3c(F)ccc(F)c3c2Cl)CC1 (centres unmarked) [Compound 380, 3-Chloro-4,7-difluoro-benzo[b]thiophene-2-carboxylic acid [5-(5-fluoro-pyridin-3-yl)-2-methoxy-benzyl]-(4-methylamino-cyclohexyl)-amide] | > 7.30 | – | > 7.30 | –
5 | CN[C@H]1CC[C@@H](N(Cc2cc(-c3cccnc3F)ccc2OC)C(=O)c2sc3cccc(F)c3c2Cl)CC1 [Compound 381] | > 7.30 | – | > 7.30 | –
6 | CNC1CCC(N(Cc2cc(-c3ccc(F)nc3)ccc2OC)C(=O)c2sc3cccc(F)c3c2Cl)CC1 (centres unmarked) [Compound 382, 3-Chloro-4-fluoro-benzo[b]thiophene-2-carboxylic acid [5-(6-fluoro-pyridin-3-yl)-2-methoxy-benzyl]-(4-methylamino-cyclohexyl)-amide] | > 7.30 | – | > 7.30 | –
7 | CN[C@H]1CC[C@@H](N(Cc2cc(-c3cncc(F)c3)ccc2OC)C(=O)c2sc3cccc(F)c3c2Cl)CC1 [Compound 383, 3-chloro-4-fluoro-N-(5-(5-fluoropyridin-3-yl)-2-methoxybenzyl)-N-((1s,4s)-4-(methylamino)cyclohexyl)benzo[b]thiophene-2-carboxamide] | > 7.30 | – | > 7.30 | –
8 | CNC1CCC(N(Cc2cc(-c3ccnc(F)c3)ccc2OC)C(=O)c2sc3c(F)ccc(F)c3c2Cl)CC1 (centres unmarked) [Compound 384, 3-Chloro-4,7-difluoro-benzo[b]thiophene-2-carboxylic acid [5-(2-fluoro-pyridin-4-yl)-2-methoxy-benzyl]-(4-methylamino-cyclohexyl)-amide] | > 7.30 | – | > 7.30 | –
9 | CNC1CCC(N(Cc2cc(-c3ccnc(F)c3)ccc2OC)C(=O)c2sc3cccc(F)c3c2Cl)CC1 (centres unmarked) [Compound 385, 3-Chloro-4-fluoro-benzo[b]thiophene-2-carboxylic acid [5-(2-fluoro-pyridin-4-yl)-2-methoxy-benzyl]-(4-methylamino-cyclohexyl)-amide] | > 7.30 | – | > 7.30 | –
10 | CNC1CCC(N(Cc2cc(-c3ccncc3F)ccc2OC)C(=O)c2sc3c(F)ccc(F)c3c2Cl)CC1 (centres unmarked) [Compound 386, 3-Chloro-4,7-difluoro-benzo[b]thiophene-2-carboxylic acid [5-(3-fluoro-pyridin-4-yl)-2-methoxy-benzyl]-(4-methylamino-cyclohexyl)-amide] | > 7.30 | – | > 7.30 | –
11 | CNC1CCC(N(Cc2cc(-c3ccncc3F)ccc2OC)C(=O)c2sc3cccc(F)c3c2Cl)CC1 (centres unmarked) [Compound 387, 3-Chloro-4-fluoro-benzo[b]thiophene-2-carboxylic acid [5-(3-fluoro-pyridin-4-yl)-2-methoxy-benzyl]-(4-methylamino-cyclohexyl)-amide] | > 7.30 | – | > 7.30 | –

More lines, main results first:

Row | pEC50 [2, 3] | pEC50 ([2]; read-out: Daoy Avg. EC50) | Structure (SMILES) | pEC50 ([1]; read-out: Mouse S12 Avg. EC50) | pEC50 ([1]; read-out: S12 Avg. EC50)
12 | > 7.30 | – | CN[C@H]1CC[C@@H](N(Cc2cc(-c3ccc(S(N)(=O)=O)cc3)ccc2OC)C(=O)c2sc3c(F)ccc(F)c3c2Cl)CC1 [Compound 388, 3-Chloro-4,7-difluoro-benzo[b]thiophene-2-carboxylic acid (4-methoxy-4′-sulfamoyl-biphenyl-3-ylmethyl)-(4-methylamino-cyclohexyl)-amide hydrochloride] | > 7.30 | –
13 | > 7.30 | – | CCS(=O)(=O)c1ccc(-c2ccc(OC)c(CN(C(=O)c3sc4c(F)ccc(F)c4c3Cl)[C@H]3CC[C@@H](NC)CC3)c2)cc1 [Compound 389, 3-Chloro-4,7-difluoro-benzo[b]thiophene-2-carboxylic acid (4′-ethanesulfonyl-4-methoxy-biphenyl-3-ylmethyl)-(4-methylamino-cyclohexyl)-amide hydrochloride] | > 7.30 | –
14 | > 7.30 | – | COc1ccc(-c2ccc(S(C)(=O)=O)cc2)cc1CN(C(=O)c1sc2c(F)ccc(F)c2c1Cl)[C@H]1CC[C@@H](N)CC1 [Compound 390, 3-Chloro-4,7-difluoro-benzo[b]thiophene-2-carboxylic acid (4-amino-cyclohexyl)-(4′-methanesulfonyl-4-methoxy-biphenyl-3-ylmethyl)-amide hydrochloride] | > 7.30 | –
15 | > 7.30 | – | CN[C@H]1CC[C@@H](N(Cc2cc(-c3ccc(S(=O)(=O)N(C)C)cc3)ccc2OC)C(=O)c2sc3c(F)ccc(F)c3c2Cl)CC1 [Compound 391, 3-Chloro-4,7-difluoro-benzo[b]thiophene-2-carboxylic acid (4′-dimethylsulfamoyl-4-methoxy-biphenyl-3-ylmethyl)-(4-methylamino-cyclohexyl)-amide trifluoroacetate] | > 7.30 | –
16 | > 7.30 | – | CN[C@H]1CC[C@@H](N(Cc2cc(-c3ccncc3)ccc2C)C(=O)c2sc3c(F)ccc(F)c3c2Cl)CC1 [Compound 392, 3-Chloro-4,7-difluoro-benzo[b]thiophene-2-carboxylic acid (4-methylamino-cyclohexyl)-(2-methyl-5-pyridin-4-yl-benzyl)-amide bis(trifluoroacetate)] | > 7.30 | –
17 | 6.60 to 7.30 | – | C=Cc1ccc(-c2ccc(OC)c(CN(C(=O)c3sc4c(F)ccc(F)c4c3Cl)[C@H]3CC[C@@H](N)CC3)c2)cc1 [Compound 393, N-((1r,4r)-4-aminocyclohexyl)-3-chloro-4,7-difluoro-N-((4-methoxy-4′-vinylbiphenyl-3-yl)methyl)benzo[b]thiophene-2-carboxamide] | 6.60 to 7.30 | –
18 | > 7.30 | – | CN[C@H]1CC[C@@H](N(Cc2cc(OC)cc(-c3ccncc3)c2)C(=O)c2sc3c(F)ccc(F)c3c2Cl)CC1 [Compound 394, 3-Chloro-4,7-difluoro-benzo[b]thiophene-2-carboxylic acid (3-methoxy-5-pyridin-4-yl-benzyl)-(4-methylamino-cyclohexyl)-amide bis(trifluoroacetate)] | > 7.30 | –
19 | 6.60 to 7.30 | – | CCc1ccc(-c2ccncc2)cc1CN(C(=O)c1sc2c(F)ccc(F)c2c1Cl)[C@H]1CC[C@@H](NC)CC1 [Compound 395, 3-Chloro-4,7-difluoro-benzo[b]thiophene-2-carboxylic acid (2-ethyl-5-pyridin-4-yl-benzyl)-(4-methylamino-cyclohexyl)-amide dihydrochloride] | 6.60 to 7.30 | –
20 | – | 6.00 to 6.60 | CN[C@H]1CC[C@H](N(Cc2cc(-c3ccccc3SC)ccc2OC)C(=O)c2sc3c(F)ccc(F)c3c2Cl)CC1 [Compound 408, 3-Chloro-4,7-difluoro-benzo[b]thiophene-2-carboxylic acid (4-methoxy-2′-methylsulfanyl-biphenyl-3-ylmethyl)-(4-methylamino-cyclohexyl)-amide hydrochloride] | – | 6.00 to 6.60
21 | – | 5.60 to 6.00 | CN[C@H]1CC[C@H](N(Cc2cc(-c3ccccc3[S+](C)[O-])ccc2OC)C(=O)c2sc3c(F)ccc(F)c3c2Cl)CC1 (some centres unmarked) [Compound 409, 3-Chloro-4,7-difluoro-benzo[b]thiophene-2-carboxylic acid (2′-methanesulfinyl-4-methoxy-biphenyl-3-ylmethyl)-(4-methylamino-cyclohexyl)-amide trifluoroacetate] | – | 6.00 to 6.60
22 | – | > 7.30 | COc1ccc(-c2cccnc2)cc1CN(C(=O)c1sc2cccc(F)c2c1Cl)[C@H]1CC[C@@H](N)CC1 [Compound 410, 3-Chloro-4-fluoro-benzo[b]thiophene-2-carboxylic acid (4-amino-cyclohexyl)-(2-methoxy-5-pyridin-3-yl-benzyl)-amide] | – | > 7.30
